Key:
Type in all cases: functional, cell-based
[1] = Cytotoxicity against the growth of LS174T human colon cancer cells was determined using sulforhodamine B assay in the presence of Nitroreductase+NADH
[2] = Cytotoxicity against the growth of LS174T human colon cancer cells was determined using sulforhodamine B assay
[3] = Cytotoxicity against the growth of […] human colon cancer cells was determined using sulforhodamine B assay; conditions: Cancer cell lines
[4] = Cytotoxicity against the growth of […] human colon cancer cells was determined using sulforhodamine B assay in the presence of Nitroreductase+NADH; conditions: Cancer cell lines

Row | Structure (SMILES) | IC50 [1] [µM] | IC50 [2] [µM] | IC50 [3] [µM] | IC50 [4] [µM]
1 | Cn1cc(NC(=O)c2cc(NC(=O)c3cc(NC(=O)c4ccc(N(CCCl)CCCl)cc4)cn3C)cn2C)cc1C(=O)NCCCNC(=O)OCc1ccc([N+](=O)[O-])cc1 | 0.02 | 2.3 | 22.9 | 9.4
2 | Cn1cc(NC(=O)c2cc(NC(=O)c3cc(NC(=O)c4ccc(N(CCCl)CCCl)cc4)cn3C)cn2C)cc1C(=O)NCCCN |  | 0.02 | 10 | 

From ChEMBL document CHEMBL1129910, “Synthesis of an aminopropyl analog of the experimental anticancer drug tallimustine, and activation of its 4-nitrobenzylcarbamoyl prodrug by nitroreductase and NADH” (Bioorg Med Chem Lett, 1997)
